Assay results as given in patent publication US20200148803A1, “POLYMERIZABLE MULTIFUNCTIONAL ANTIMICROBIAL QUATERNARY AMMONIUM MONOMERS, METHODS OF SYNTHESIS, AND USES THEREOF” (ADA Foundation, priority 2018, published 2020).

Columns and labels:
[1] = Degree of vinyl conversion (DVC) by near infra-red spectra of copolymer beams; assay type: physicochemical
Experimental: (§1) Experimental resin (UPE) was formulated from the commercially available monomers urethane dimethacrylate (UDMA, 50.91% w/w), polyethylene glycol extended urethane dimethacrylate (PEG-U, 18.18% w/w), and ethyl 2-(hydroxymethyl)acrylate (EHMA, 30.91% w/w). A conventional visible light initiator system comprised of camphorquinone (0.2% w/w) and ethyl-4-N,N-dimethylamino benzoate (4EDMAB, 0.8% w/w) was utilized. […] Copolymer specimens (beams) were prepared by depositing UPE (UPE resin control) and AM-UPE resins into glass molds (2 mm×2 mm×25 mm) and photopolymerizing them with a dental curing light (Triad 2000, Dentsply, Charlotte, N.C., USA) for 2 minutes from two sides. Copolymer specimens (pellets) were prepared by depositing UPE and AM-UPE resins into a stainless-steel mold (1 mm×16 mm), sandwiched between two sheets of Mylar film and two glass slides and photopolymerized in the same manner as the beam samples. Degree of vinyl conversion (DVC) of UPE and AM-UPE resins was determined utilizing beam samples by collecting the near infra-red (NIR) spectra (Nexus 670, ThermoFisher, Madison, Wis., USA) before and 24 h after polymerization and calculating the reduction in absorption band at 6165 cm^−1 corresponding to the vinyl (C═C—H) overtone signal. By maintaining a constant specimen thickness, a need for an invariant internal standard was eliminated. The DVC was calculated as: […]
(§2) where Area(polymer) and Area(monomer) correspond to the areas under 6165 cm^−1 peaks after and before the polymerization, respectively. After DVC analysis, flexural strength (FS) and elastic modulus (E) of beam specimen were determined employing the Universal Testing Machine (Instron 5500R, Instron Corp., Canton, Mass., USA). The load was applied (at cross-head speed of 1 mm/min) to the center of a specimen positioned on a test device with supports 20 mm apart. The FS and E of the specimens (three replicates/experimental group) was calculated as instructed in the ISO4049:2009 document. Changes in hydrophilicity/hydrophobicity of UPE resins due to the introduction of AM monomers were assessed on pellet specimen by sessile drop contact angle (CA) measurements (drop shape analyzer DSA100, Krüss GmbH, Hamburg, Germany). Following the deposition of 4 μL water droplets on the resin pellets, the pellets were imaged after 1 min resting time with a camera at the points of intersection (three-phase contact points) between the drop contour and the projection of the surface (baseline). The CA water values were calculated employing the Krüss Advance software. At least four repetitive measurements were performed in each group. Analysis of variance (ANOVA) and Newman-Keuls multiple paired comparisons (at 95% confidence level) were used to analyze the experimental data as a function of resin composition and establish a statistical significance of differences between the experimental groups (WINKS 7.0.9, TexaSoft, Cedar Hills, Tex., USA).

[2] = Sessile drop water contact angle (CA) on resin pellets; assay type: physicochemical
Experimental: as §1, §2

[3] = tested on: mouse subcutaneous connective tissue fibroblasts (NCTC clone 929, CCL1); assay: Direct contact cytotoxicity, LIVE/DEAD viability, CCL1 cells; assay type: cell-based
[4] = tested on: human gingival fibroblasts (HGF); assay: Direct contact cytotoxicity, LIVE/DEAD viability, HGF cells; assay type: cell-based
Experimental: (§3) Immortalized human gingival fibroblasts (HGF) were purchased from Applied Biological Materials, Inc. (Richmond, British Columbia, Canada). […] For experiments, cells were obtained from a subconfluent stock culture.
(§4) Direct contact cytotoxicity testing was conducted as previously described^7, 8. Briefly, cells were exposed to two-fold serial dilutions of AMadh series monomers or AMsil series monomers to approximate the maximum possible exposure, (Table 9). Table 9 illustrates biocompatibility testing using maximum possible monomer exposure (mmol/L), assuming 7% mass fraction in the restorative with a maximum of 2% leaching. To account for multiplicity and variable size of restorations, a two- and four-fold greater dilution was also included in the testing. After 24 and 72 h, cells were assessed for cell viability using the LIVE/DEAD® Viability/Cytotoxicity kit (Life Technologies, Corp., Grand Island, N.Y.). Cellular metabolic activity was subsequently assessed using the CellTiter® AQueous One Solution Reagent (Promega, Corp., Madison, Wis.). Negative controls were without the novel monomer and/or cells. Mean+standard error was obtained from five independent replicates tested in triplicate.

[5] = tested on: CCL1 cells; assay: Cellular metabolic activity (CellTiter AQueous One Solution Reagent), CCL1 cells; assay type: cell-based; conditions: two-fold serial dilutions, 24 h and 72 h
[6] = tested on: human gingival fibroblasts (HGF); assay: Cellular metabolic activity (CellTiter AQueous One Solution Reagent), HGF cells; assay type: cell-based; conditions: two-fold serial dilutions, 24 h and 72 h
Experimental: as §3, §4

[7] = tested on: human liver cells (HepG2-AD13); assay: Direct contact cytotoxicity, Luciferase Assay System, HepG2-AD13 cells; assay type: cell-based; conditions: 6 h
Experimental: Immortalized human liver cells (hereafter HepG2-AD13) were obtained from collaborators at Aichi Gakuin University, Japan. The cells were maintained (37° C., 5% CO2) in Dulbecco's Modified Eagle's medium supplemented with 10% fetal bovine serum. For experiments, cells were obtained from a subconfluent stock culture.
Direct contact cytotoxicity testing was conducted by exposing cells to two-fold serial dilutions of AMmis2 (Table 8) to approximate the maximum possible exposure, assuming 7% mass fraction in the composite with a maximum of 2% leaching. To account for multiplicity and variable size of restorations, a four-fold greater dilution was also included in the testing. After 6 h, cells were assessed for cell viability using a Luciferase Assay System (Promega Corp., Madison, Wis.). Negative controls were without the AMmis2 and/or cells. Mean+standard error was obtained from five independent replicates tested in quadruplicate.

[8] = two-fold serial dilutions, 24 h and 72 h

Row | Compound | DVC compared to UPE resin control ([1]; 10 mass percent in UPE resin) | reduction of DVC relative to UPE resin control ([1]; 20 mass percent in UPE resin) | CA ([2]; 10 mass % monomer in UPE resin) | reduction of CA relative to UPE resin control ([2]; 10 mass % monomer in UPE resin) | effect on hydrophobic-hydrophilic properties of the copolymer ([2]; 10 mass percent in UPE resin) | effect on hydrophobic-hydrophilic properties of the copolymer ([2]; 20 mass percent in UPE resin) | effect of monomer concentration on CCL1 cell viability [3, 8] | percentage of live CCL1 cells, fold lower compared to concentrations ≤0.91 mmol/L ([3]; ≥1.82 mmol/L, 72 h exposure) | live CCL1 cells compared to lower concentrations ([3]; ≥3.64 mmol/L, 24 h exposure) | effect of exposure time on HGF live cells, difference of means ([4]; 24 h vs 72 h, regardless of concentration) | effect of monomer concentration on HGF cell viability [4, 8] | reduction of number of live HGFs compared to the control group ([4]; ≥1.82 mmol/L) | effect of monomer concentration on CCL1 metabolic activity [5] | effect on metabolic activity of HGF cells [6] | effect on HepG2-AD13 cells compared to negative control ([7]; concentrations ≤1.812 mmol/L) | relative luminescence units, fold greater than at all lower concentrations ([7]; concentrations ≥3.623 mmol/L)
1 | C=C(C)C(=O)OCC[N+](C)(C)CCCCCCCCCCC[Si](OC)(OC)OC.[Br-] [AMsil2, N-(2-(methacryloyloxy)ethyl)-N,N-dimethyl-11-(trimethoxysilyl)undecan-1-aminium bromide] | did not change the copolymer DVC | 12.9% | 37.4±9.2 ° | 38% | a shift towards the lower CA values | maintained the hydrophobic-hydrophilic balance | exerted a main effect | 3 to 4 fold | lower | ~23% | exhibited a concentration effect | more than 3 fold | exerted an effect | exhibited an effect | – | –
2 | 2-(methacryloyloxy)-N,N,N-trimethylethan-1-aminium methacrylate [AMmis2] | – | – | – | – | – | – | – | – | – | – | – | – | – | – | did not exert a significant effect | at least 1.5 fold
